We go through 18 compounds from patent US10829458B2 (Araxes Pharma LLC, priority 2015, dated 2020).

The target of this test is T1, KRAS G12C 1-169, his-tagged protein, GDP-loaded (Homo sapiens, UniProt P01116, G12C).
T1 construct: KRAS G12C 1-169, his-tagged protein, GDP-loaded
In words: Biochemical assay: covalent modification of KRAS G12C measured by mass spectrometry (RapidFire/TOF or Q-Exactive). The settings on record: covalent binding to KRAS G12C. As to the method: Test compounds were prepared as 10 mM stock solutions in DMSO (Fisher cat #BP-231-100). KRAS G12C 1-169, his-tagged protein, GDP-loaded was diluted to 2 μm in buffer (20 mM Hepes, 150 mM NaCl, 1 mM MgCl2). Compounds were tested for activity as follows:
Compounds were diluted to 50× final test concentration in DMSO in 96-well storage plates. Compound stock solutions were vortexed before use and observed carefully for any sign of precipitation. Dilutions were as follow: • For 100 μM final compound concentration, compounds were diluted to 5000 μM (5 μl 10 mM compound stock+5 μl DMSO and mixed well by pipetting. • For 30 μM final compound concentration, compounds were diluted to 1500 μM (3 μl 10 mM compound stock+17p DMSO) and mixed well by pipetting. • For 10 μM final compound concentration, compounds were diluted to 500 μM (2 μl 10 mM compound stock+38p DMSO) and mixed well by pipetting. 49p of the stock protein solution was added to each well of a 96-well PCR plate (Fisher cat #1423027). 1 μl of the diluted 50× compounds were added to appropriate wells in the PCR plate using 12-channel pipettor. Reactions were mixed carefully and thoroughly by pipetting up/down with a 200·1 multi-channel pipettor. The plate was sealed well with aluminum plate seal, and stored in drawer at room temperature for 30 min, 2 hour or 24 hrs. 5·1 of 2% formic acid (Fisher cat #A117) in DI H2O was then added to each well followed by mixing with a pipette. The plate was then resealed with aluminum seal and stored on dry ice until analyzed as described below.
The above described assays were analyzed by mass spectrometry according to one of the following two procedures:
The MS instrument is set to positive polarity, 2 GHz resolution, and low mass (1700) mode and allowed to equilibrate for 30 minutes. The instrument is then calibrated, switched to acquisition mode and the appropriate method loaded.
After another 30 minute equilibration time, a blank batch (i.e., buffer) is run to ensure equipment is operating properly. The samples are thawed at 37° C. for 10 minutes, briefly centrifuged, and transfer to the bench top. Wells A1 and H12 are spiked with 1 uL 500 uM internal standard peptide, and the plates centrifuged at 2000×g for 5 minutes. The method is then run and masses of each individual well recorded.
The masses (for which integration data is desired) for each well are pasted into the platemap and exported from the analysis. Masses for the internal standards are exported as well. The data at 50 ppm is extracted for the +19 charge state, and identity of well A1 is assigned using the internal standard spike and integrated. Peak data is exported as a TOF list and the above steps are repeated individually, for the +20, 21, 22, 23, 24, and 25 charge states.
The masses and peak intensities of KRAS G12C protein species were measured using a Dionex RSLCnano system (Thermo Scientific) connected to a Q Exactive Plus mass spectrometer (Thermo Scientific).
[…] of sample was each loaded onto a Aeris™ 3.6 μm WIDEPORE C4 200 Å, LC Column 50×2.1 mm column maintained at 40° C. at a flow rate of 600 μl min^−1 with […] (0.1% formic acid in acetonitrile). The liquid chromatography conditions were 20% solvent B for 1 min, 20% to 60% solvent B for 1.5 min, 60% to 90% solvent for 0.5 min, 90% solvent B for 0.2 min, 90% to 20% solvent B for 0.2 min, and then equilibrated for 1.6 min before the following sample injection. The flow rate was maintained at 600 μl min^−1 throughout the sample analysis.
The mass spectrometer was operated in profile mode at a resolution of 17500, 5 microscans, using 50 msec max injection time and an AGC target of 1e6, and a full mass range from 800-1850 m/z was recorded. The HCD trapping gas was optimized for maximum sensitivity for intact proteins. […]

Each structure is given as a SMILES string.

Regarding `C=CC(=O)Oc1cccc(F)c1-c1c(Cl)cc2c(N3CCN(C(=O)C=C)CC3)nc(OCC(=O)N(C)C)nc2c1F` [Example I-9, 2-(4-(4-acryloyl-piperazin-1-yl)-6-chloro-2-(2-(dimethylamino)-2-oxoethoxy)-8-fluoroquinazolin-7-yl)-3-fluorophenyl acrylate], the Binding % entry (compounds of structure (I)) is given as “++ (++ indicates binding activity from 50 to 90%)”.

With `C=CC(=O)N1CCN(c2nc(OCCN3CC(F)(F)C3)nc3c(F)c(-c4cc(O)cc5ccccc45)c(Cl)cc23)CC1` [Example I-107, 1-(4-(6-chloro-2-(2-(3,3-difluoro-azetidin-1-yl)ethoxy)-8-fluoro-7-(3-hydroxy-naphthalen-1-yl)quinazolin-4-yl)piperazin-1-yl) prop-2-en-1-one], where the note is “compounds of structure (I)”, the Binding % entry is “+++ (+++ indicates binding activity greater than 90%)”.

Consider `C=CC(=O)N1CCN(c2nc(N3CCCC3)nc3c(F)c(-c4c(O)cccc4F)c(Cl)cc23)CC1` [Example I-147, 1-(4-(6-chloro-8-fluoro-7-(2-fluoro-6-hydroxyphenyl)-2-(pyrrolidin-1-yl)quinazolin-4-yl)piperazin-1-yl)prop-2-en-1-one], for which the Binding % entry (compounds of structure (I)) was “++ (++ indicates binding activity from 50 to 90%)”.

For the compound `C=CC(=O)N1C[C@@H](C)N(c2ncnc3c(F)c(-c4c(O)cccc4F)c(Cl)cc23)[C@@H](C)C1` (atropisomer, axis not shown) [III-4, 1-((3S,5R)-4-((R)-6-chloro-8-fluoro-7-(2-fluoro-6-hydroxy-phenyl)quinazolin-4-yl)-3,5-dimethyl-piperazin-1-yl)prop-2-en-1-one], the Binding % entry (compounds of structure (III)) is “+ (+ indicates binding activity up to 50%)”.

With `C=CC(=O)N1[C@H](C)CN(c2ncnc3c(F)c(-c4c(C)ccc5[nH]ncc45)c(Cl)cc23)C[C@@H]1C` [III-26, 1-((2S,6R)-4-(6-chloro-8-fluoro-7-(5-methyl-1H-indazol-4-yl)quinazolin-4-yl)-2,6-dimethyl-piperazin-1-yl)prop-2-en-1-one], the Binding % result (compounds of structure (III)) is on record as “++ (++ indicates activity from 50% to 90%)”.

Regarding `C=CC(=O)N1CCN(c2nc(OCc3cccc(C#N)n3)nc3c(F)c(-c4c(O)cccc4F)c(Cl)cc23)CC1` [Example I-122, 6-((4-(4-acryloyl-piperazin-1-yl)-6-chloro-8-fluoro-7-(2-fluoro-6-hydroxyphenyl)quinazolin-2-yloxy)methyl) picolinonitrile], the Binding % entry (compounds of structure (I)) is recorded as “+++ (+++ indicates binding activity greater than 90%)”.

In the case of `C=CC(=O)N1CCN(c2nc(OCC(O)CN(C)C)nc3c(F)c(-c4c(C)ccc5[nH]ncc45)c(Cl)cc23)CC1` (stereo not drawn) [Example I-53, 1-(4-(6-chloro-2-(3-(dimethyl-amino)-2-hydroxy-propoxy)-8-fluoro-7-(5-methyl-1H-indazol-4-yl)quinazolin-4-yl)piperazin-1-yl)prop-2-en-1-one], the Binding % entry (compounds of structure (I)) is “+++ (+++ indicates binding activity greater than 90%)”.

As to `C=CC(=O)N1CCN(c2nc(N3CC(N(C)C)C3)nc3c(F)c(-c4c(O)cccc4F)c(Cl)cc23)CC1` (atropisomer, axis not shown) [Example I-117, (R)-1-(4-(6-chloro-2-(3-(dimethylamino)azetidin-1-yl)-8-fluoro-7-(2-fluoro-6-hydroxyphenyl)quinazolin-4-yl)piperazin-1-yl) prop-2-en-1-one], for the setting “compounds of structure (I)”, the Binding % result was “+ (+ indicates binding activity up to 50%)”.

As to `C=CC(=O)N1CCN(c2nc(OCc3ccc(C#N)nc3)nc3c(F)c(-c4c(O)cccc4F)c(Cl)cc23)CC1` [Example I-129, 5-((4-(4-acryloyl-piperazin-1-yl)-6-chloro-8-fluoro-7-(2-fluoro-6-hydroxyphenyl)quinazolin-2-yloxy)methyl) picolinonitrile], the Binding % entry (compounds of structure (I)) is reported as “+++ (+++ indicates binding activity greater than 90%)”.

As for `C=CC(=O)N1CCN(c2nc(C(=O)N3CCN(C)CC3)nc3c(F)c(-c4c(O)cccc4F)c(Cl)cc23)CC1` [Example I-90, 1-(4-(6-chloro-8-fluoro-7-(2-fluoro-6-hydroxyphenyl)-2-(4-methyl-piperazine-1-carbonyl)quinazolin-4-yl)piperazin-1-yl)prop-2-en-1-one], under “compounds of structure (I)”, the Binding % entry was “+++ (+++ indicates binding activity greater than 90%)”.

Consider `C=CC(=O)N1CCN(c2nc(OCC(O)CN(C)C)nc3c(F)c(-c4cc(O)cc5ccccc45)c(Cl)cc23)CC1` (stereo not drawn) [Example I-58, 1-(4-(6-chloro-2-(3-(dimethyl-amino)-2-hydroxy-propoxy)-8-fluoro-7-(3-hydroxy-naphthalen-1-yl)quinazolin-4-yl)piperazin-1-yl)prop-2-en-1-one], for which the Binding % entry (compounds of structure (I)) was “+++ (+++ indicates binding activity greater than 90%)”.

Regarding `C=CC(=O)N1CCN(c2nc(N3CCOCC3)nc3c(F)c(-c4cc(O)cc5ccccc45)c(Cl)cc23)CC1` [Example I-46, 1-(4-(6-chloro-8-fluoro-7-(3-hydroxy-naphthalen-1-yl)-2-morpholino-quinazolin-4-yl)piperazin-1-yl)prop-2-en-1-one], the Binding % entry (compounds of structure (I)) is “+++ (+++ indicates binding activity greater than 90%)”.

Take `C=CC(=O)N1CCN(c2nc(N3CCOCC3)nc3c(F)c(-c4c(O)cccc4F)c(Cl)cc23)CC1` [Example I-47, 1-(4-(6-chloro-8-fluoro-7-(2-fluoro-6-hydroxyphenyl)-2-morpholino-quinazolin-4-yl)piperazin-1-yl)prop-2-en-1-one]: the Binding % result (compounds of structure (I)) is “+++ (+++ indicates binding activity greater than 90%)”.

As to `C=CC(=O)N1CCN(c2nc(N3CC(N(C)C)C3)nc3c(F)c(-c4c(O)cccc4F)c(Cl)cc23)CC1` [Example I-55, 1-(4-(6-chloro-2-(3-(dimethyl-amino)azetidin-1-yl)-8-fluoro-7-(2-fluoro-6-hydroxyphenyl)quinazolin-4-yl)piperazin-1-yl) prop-2-en-1-one], where the note is “compounds of structure (I)”, the Binding % result is “+++ (+++ indicates binding activity greater than 90%)”.

With `C=CC(=O)N1CCN(c2nc(N)nc3c(F)c(-c4c(O)cccc4F)c(Cl)cc23)CC1` [Example I-175, 1-(4-(2-amino-6-chloro-8-fluoro-7-(2-fluoro-6-hydroxyphenyl)quinazolin-4-yl)piperazin-1-yl) prop-2-en-1-one], the Binding % result (compounds of structure (I)) is recorded as “++ (++ indicates binding activity from 50 to 90%)”.

`C=CC(=O)N1CCN(c2ncnc3c(F)c(-c4c(O)cccc4F)c(Cl)cc23)C2(CC2)C1` [III-31, 1-(4-(6-chloro-8-fluoro-7-(2-fluoro-6-hydroxy-phenyl)quinazolin-4-yl)-4,7-diazaspiro [2.5]octan-7-yl)prop-2-en-1-one]: for the setting “compounds of structure (III)”, the Binding % entry is “+ (+ indicates binding activity up to 50%)”.

As to `C=CC(=O)N1CCN(c2nc(OCc3cnc(OC)nc3)nc3c(F)c(-c4c(O)cccc4F)c(Cl)cc23)CC1` [Example I-118, 1-(4-(6-chloro-8-fluoro-7-(2-fluoro-6-hydroxyphenyl)-2-((2-methoxy-pyrimidin-5-yl)methoxy)quinazolin-4-yl)piperazin-1-yl) prop-2-en-1-one], the Binding % result (compounds of structure (I)) is reported as “+++ (+++ indicates binding activity greater than 90%)”.

As to `C=CC(=O)N1CCN(c2nc(OCc3cnc(C)nc3)nc3c(F)c(-c4c(O)cccc4F)c(Cl)cc23)CC1` [Example I-101, 1-(4-(6-chloro-8-fluoro-7-(2-fluoro-6-hydroxyphenyl)-2-((2-methyl-pyrimidin-5-yl)methoxy)quinazolin-4-yl)piperazin-1-yl) prop-2-en-1-one], the Binding % result (compounds of structure (I)) was “+++ (+++ indicates binding activity greater than 90%)”.
